What was measured:
Assay in all cases: Bliss excess, mean over the matrix (fraction); higher = more synergy
UACC-257 (Melanoma) = tested on: UACC-257 (Melanoma)
How it was run: (§1)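 Cell lines grown in DMEM/F12 or RPMI with 10% FBS were plated in 1536-well plates and held 24 hours at 37°C, 5% CO2 before 72 hours of exposure to two-drug dose matrices, with DMSO typically at 0.2%. CellTiter-Glo 2.0 luminescence gave viability, which was converted to inhibition. Vehicle wells were set to 0 and blank wells to 1. Combination Emax is the second-highest inhibition in the matrix, and Bliss excess is the observed combination effect minus the expected EA + EB − EA·EB, where EA and EB are the single-agent effects.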

[1] = tested on: LS-1034 (Colorectal Carcinoma)
How it was run: as §1

[2] = tested on: P32-ISH (Burkitt's Lymphoma)
How it was run: as §1

[3] = tested on: PL4 (Pancreatic Carcinoma)
How it was run: as §1

[4] = tested on: SK-CO-1 (Colorectal Carcinoma)
How it was run: as §1

[5] = tested on: NCI-H596 (Other Solid Carcinomas)
How it was run: as §1

T47D (Breast Carcinoma) = tested on: T47D (Breast Carcinoma)
How it was run: as §1

[6] = tested on: OVCAR-3 (Ovarian Carcinoma)
How it was run: as §1

[7] = tested on: RCC-JW (Kidney Carcinoma)
How it was run: as §1

[8] = tested on: SUP-M2 (T-Cell Non-Hodgkin's Lymphoma)
How it was run: as §1

[9] = tested on: SNU-407 (Colorectal Carcinoma)
How it was run: as §1

[10] = tested on: OAW-28 (Ovarian Carcinoma)
How it was run: as §1

WM35 (Melanoma) = tested on: WM35 (Melanoma)
How it was run: as §1

[11] = tested on: NCI-H3118 (Head and Neck Carcinoma)
How it was run: as §1

[12] = tested on: PA-TU-8988T (Pancreatic Carcinoma)
How it was run: as §1

[13] = tested on: SKG-IIIa (Cervical Carcinoma)
How it was run: as §1

[14] = tested on: CPC-N (Small Cell Lung Carcinoma)
How it was run: as §1

ES6 (Ewing's Sarcoma) = tested on: ES6 (Ewing's Sarcoma)
How it was run: as §1

[15] = tested on: CL-11 (Colorectal Carcinoma)
How it was run: as §1

[16] = tested on: MOLP-8 (Plasma Cell Myeloma)
How it was run: as §1

Compound	Bliss excess (UACC-257 (Melanoma))	Bliss excess [1]	Bliss excess [2]	Bliss excess [3]	Bliss excess [4]	Bliss excess [5]	Bliss excess (T47D (Breast Carcinoma))	Bliss excess [6]	Bliss excess [7]	Bliss excess [8]	Bliss excess [9]	Bliss excess [10]	Bliss excess (WM35 (Melanoma))	Bliss excess [11]	Bliss excess [12]	Bliss excess [13]	Bliss excess [14]	Bliss excess (ES6 (Ewing's Sarcoma))	Bliss excess [15]	Bliss excess [16]
Cn1cnc2c(F)c(Nc3ccc(Br)cc3Cl)c(C(=O)NOCCO)cc21 [Selumetinib] + CC(C)n1c(=O)n(C)c2cnc3cc(F)c(-c4ccc(OCCCN5CCCCC5)nc4)cc3c21 [AZD1390] (first compound max 10 µM, 7x7, partner max 0.3 µM)	-0.0099	-0.0198	-0.0083	0.0102	-0.0168	-0.0459	-0.0468	-0.0387	-0.051	0.007	-0.0235	0.0193	-0.0551	0.0525	-0.0269	-0.0444	-0.0396	-0.0639	0.0011	-0.0274
Cn1cnc2c(F)c(Nc3ccc(Br)cc3Cl)c(C(=O)NOCCO)cc21 [Selumetinib] + CCN(CCO)CCCOc1ccc2c(Nc3cc(CC(=O)Nc4cccc(F)c4)[nH]n3)ncnc2c1 [AZD2811] (first compound max 10 µM, 7x7, partner max 1 µM)	0.0212	-0.0556	-0.0479	0.0097	-0.0098	-0.035	-0.0735	-0.0239	-0.0464	-0.001	-0.0522	0.0388	-0.0566	0.0259	-0.0527	-0.0486	-0.0474	-0.0508	0.0129	-0.017
Cn1cnc2c(F)c(Nc3ccc(Br)cc3Cl)c(C(=O)NOCCO)cc21 [Selumetinib] + C[C@@H]1COCCN1C2=NC(=NC(=C2)C3(CC3)[S@](=N)(=O)C)C4=C5C=CNC5=NC=C4 [AZD6738] (first compound max 10 µM, 7x7, partner max 10 µM)	0.047	-0.0316	-0.0153	0.0866	-0.112	-0.0333	-0.0576	-0.0202	-0.0393	0.012	0.1	0.046	0.0172	0.0091	0.0731	-0.0275	-0.046	-0.043	0.0244	0.0551
CC(=O)Nc1cccc(-n2c(=O)n(C3CC3)c(=O)c3c(Nc4ccc(I)cc4F)n(C)c(=O)c(C)c32)c1 [Trametinib] + Cc1nc(-c2cn3c(n2)-c2ccc(-c4cnn(C(C)(C)C(N)=O)c4)cc2OCC3)n(C(C)C)n1 [Taselisib] (first compound max 1 µM, 7x7, partner max 10 µM)	0.0443	0.0234	0.0479	0.0796	0.0523	0.0725	0.0046	0.037	0.0114	0.106	0.0236	0.158	0.124	0.13	0.173	0.112	0.0985	-0.0292	0.139	0.186
CC1(C)CCC(CN2CCN(c3ccc(C(=O)NS(=O)(=O)c4ccc(NCC5CCOCC5)c([N+](=O)[O-])c4)c(Oc4cnc5[nH]ccc5c4)c3)CC2)=C(c2ccc(Cl)cc2)C1 [Venetoclax] + C1CN(CCC1(C(=O)N[C@@H](CCO)C2=CC=C(C=C2)Cl)N)C3=NC=NC4=C3C=CN4 [Capivasertib] (first compound max 1 µM, 7x7, partner max 3 µM)	-0.0707	-0.0214	-0.0094	-0.0363	-0.0247	-0.0211	-0.0113	-0.0288	-0.0312	-0.0232	-0.0204	-0.0123	-0.0456	-0.0641	0.0237	-0.0207	-0.0365	-0.0858	-0.0205	-0.0114
CC1(C)CCC(CN2CCN(c3ccc(C(=O)NS(=O)(=O)c4ccc(NCC5CCOCC5)c([N+](=O)[O-])c4)c(Oc4cnc5[nH]ccc5c4)c3)CC2)=C(c2ccc(Cl)cc2)C1 [Venetoclax] + C=CCn1c(=O)c2cnc(Nc3ccc(N4CCN(C)CC4)cc3)nc2n1-c1cccc(C(C)(C)O)n1 [AZD1775] (first compound max 1 µM, partner max 1 µM)	-0.0142	-0.043	-0.0118	-0.0751	-0.04	-0.0783	-0.0814	-0.067	-0.0116	0.03	-0.0755	-0.009	-0.0447	-0.0416	-0.0286	-0.0362	0.0439	0.025	-0.0425	-0.0225
CC1(C)CCC(CN2CCN(c3ccc(C(=O)NS(=O)(=O)c4ccc(NCC5CCOCC5)c([N+](=O)[O-])c4)c(Oc4cnc5[nH]ccc5c4)c3)CC2)=C(c2ccc(Cl)cc2)C1 [Venetoclax] + CCN(CCO)CCCOc1ccc2c(Nc3cc(CC(=O)Nc4cccc(F)c4)[nH]n3)ncnc2c1 [AZD2811] (first compound max 1 µM, 7x7, partner max 1 µM)	-0.0105	-0.0328	-0.0282	-0.0704	0.0082	-0.0394	0.0229	-0.0087	-0.0068	0.0126	-0.036	0.0375	-0.0397	-0.0097	-0.0549	0.0225	-0.048	-0.0166	-0.0137	0.025
CC1(C)CCC(CN2CCN(c3ccc(C(=O)NS(=O)(=O)c4ccc(NCC5CCOCC5)c([N+](=O)[O-])c4)c(Oc4cnc5[nH]ccc5c4)c3)CC2)=C(c2ccc(Cl)cc2)C1 [Venetoclax] + CN(C)CCCOc1ccc(-c2ccc3ncc4c(c3c2)n(C2CCOCC2)c(=O)n4C)cn1 [AZD0156] (first compound max 1 µM, 7x7, partner max 1 µM)	-0.004	-0.052	-0.0083	-0.0397	-0.0119	-0.0377	-0.0366	-0.0303	0.0087	0.0191	-0.0437	0.0076	-0.0197	0.005	-0.0102	-0.0418	-0.0013	-0.0201	-0.0419	0.0203
CC1(C)CCC(CN2CCN(c3ccc(C(=O)NS(=O)(=O)c4ccc(NCC5CCOCC5)c([N+](=O)[O-])c4)c(Oc4cnc5[nH]ccc5c4)c3)CC2)=C(c2ccc(Cl)cc2)C1 [Venetoclax] + COc1cc(Nc2ncc3c(n2)-c2ccc(Cl)cc2C(c2c(F)cccc2OC)=NC3)ccc1C(=O)O [Alisertib] (first compound max 1 µM, 7x7, partner max 10 µM)	-0.0234	-0.0252	-0.0078	-0.0531	0.0901	-0.0501	-0.0093	-0.0234	-0.0415	-0.0043	-0.0296	0.0736	-0.0338	-0.0188	0.0042	-0.0544	-0.047	-0.0324	-0.0062	0.141
CC1(C)CCC(CN2CCN(c3ccc(C(=O)NS(=O)(=O)c4ccc(NCC5CCOCC5)c([N+](=O)[O-])c4)c(Oc4cnc5[nH]ccc5c4)c3)CC2)=C(c2ccc(Cl)cc2)C1 [Venetoclax] + C[C@@H]1COCCN1C2=NC(=NC(=C2)C3(CC3)[S@](=N)(=O)C)C4=C5C=CNC5=NC=C4 [AZD6738] (first compound max 1 µM, 7x7, partner max 10 µM)	-0.0092	-0.0255	0.0365	-0.0918	-0.103	-0.0571	-0.0634	-0.0108	-0.0484	0.0239	-0.0138	-0.0216	0.023	-0.0643	0.0107	-0.021	-0.0526	-0.0314	-0.0395	-0.0193
CC1(C)CCC(CN2CCN(c3ccc(C(=O)NS(=O)(=O)c4ccc(NCC5CCOCC5)c([N+](=O)[O-])c4)c(Oc4cnc5[nH]ccc5c4)c3)CC2)=C(c2ccc(Cl)cc2)C1 [Venetoclax] + C[C@@H](Nc1cc(F)cc(F)c1)c1cc(C(=O)N(C)C)cc2c(=O)cc(N3CCOCC3)oc12 [AZD8186] (first compound max 1 µM, 7x7, partner max 3 µM)	-0.0538	-0.0318	0.0385	-0.049	-0.0782	-0.0378	-0.0159	-0.0062	0.0135	0.0106	-0.0471	0.0551	-0.0332	-0.0439	0.0383	-0.0248	0.0256	-0.0661	-0.0397	0.0293
CC1(C)CCC(CN2CCN(c3ccc(C(=O)NS(=O)(=O)c4ccc(NCC5CCOCC5)c([N+](=O)[O-])c4)c(Oc4cnc5[nH]ccc5c4)c3)CC2)=C(c2ccc(Cl)cc2)C1 [Venetoclax] + Cc1cc2ncnn2cc1Nc1ncc2c(n1)n(C1CCOCC1)c(=O)n2C [AZD7648] (first compound max 1 µM, 7x7, partner max 10 µM)	-0.0235	-0.0323	-0.0154	-0.0297	-0.018	-0.0119	-0.0459	-0.0259	-0.0431	0.0218	0.0174	0.0005	-0.0209	-0.0369	-0.0251	0.0161	-0.0219	-0.0359	-0.0255	0.0222
CC1(C)CCC(CN2CCN(c3ccc(C(=O)NS(=O)(=O)c4ccc(NCC5CCOCC5)c([N+](=O)[O-])c4)c(Oc4cnc5[nH]ccc5c4)c3)CC2)=C(c2ccc(Cl)cc2)C1 [Venetoclax] + Cn1cnc2c(F)c(Nc3ccc(Br)cc3Cl)c(C(=O)NOCCO)cc21 [Selumetinib] (first compound max 1 µM, 7x7, partner max 3 µM)	-0.0487	-0.0644	0.0152	-0.0236	0.001	-0.0764	-0.0624	-0.017	-0.0396	0.0165	-0.0275	0.0047	0.0543	-0.0276	-0.021	-0.0275	-0.0454	-0.0321	-0.0494	-0.0737

— the supplement of paper PMC11061612
